Assay results taken from US20120196918A1, “PREVENTING ISLET INFLAMMATION AND DYSFUNCTION AND MAINTAINING PROPER GLUCOSE LEVELS BY CONTROLLING eIF5A AND ITS HYPUSINATION” (priority 2009, published 2012).

Key:
C57BL/6J mouse islets = assay: GSIS and GSCa of islets isolated from siRNA-injected mice; assay type: cell-based
Protocol: To clarify this, islets were isolated from siRNA-injected mice and their function assessed in vitro. […] In order to further characterize this improvement in islet glucose responsiveness, glucose-stimulated Ca2+ mobilization (GSCa) studies were also performed. GSCa is a measure of islet glucose sensitivity that captures the dynamics of the islet glucose response, which is similar to GSIS (31). The GSCa, as measured by the change in fura-2 AM fluorescence ratio after glucose stimulation, was increased in si-eIF5A-treated islets compared to controls, reflecting the functional improvement seen in GSIS (FIG. 3D). This improved GSCa relative to controls persisted 48 and 72 hours post-isolation (data not shown).
A short cytokine exposure (4 h) was utilized to assess early impairment in islet function independent of islet cell death. […] As shown in the inset to FIG. 3E, eIF5A levels remained persistently lower in the si-eIF5A group even after cytokine exposure.
Cytokine and inhibitor incubation studies: For cytokine incubation assays, a 1000× cocktail of cytokines containing 5 μg/ml IL1β, 10 μg/ml TNFα, and 100 μg/ml IFNγ (all prepared in 0.1% BSA in Tris-buffered saline) was applied at 1× final concentration to groups of 50 islets or 1×10^6 INS-1 (832/13) cells for a total of 4 h at 37° C. For GC7 incubation studies, GC7 was prepared at a stock concentration of 125 mM in 10 mM acetic acid and applied to cultures of 50 islets or 1×10^6 INS-1 cells to obtain the final concentrations indicted in the figures. Where needed, GC7 was protected from amine oxidases in serum by addition of 1 mM aminoguanidine (Sigma). Cells were incubated with GC7 overnight (˜16 h) at 37° C. prior to analysis. Cells were exposed to Leptomycin B (Cayman Chemicals) for 3 hours; leptomycin B was prepared at a 1000× stock concentration of 20 μg/ml in ethanol.
GSCa imaging assays: Intracellular Ca^2+ ((Ca2+)i) was measured using the ratiometric Ca^2+ indicator fura-2 AM using a modification of previously published methods (79). The glucose-stimulated (Ca2+)i response (GSCa) was defined as the difference between ratio measurements (340/380 nm fluorescence) in 11 mM vs. 3 mM glucose. Data were analyzed with IP Lab's software version 4.0 (Scanalytics).
GSIS and IPGTT studies: For GSIS studies using isolated islets, approximately 50 islets or 1×10^6 INS-1 cells per condition were washed and incubated in Krebs-Ringer HEPES-buffered (KRB) solution for one hour at 37° C., and then placed in KRB solution containing 3 mM or 11 mM glucose for one hour. […] Blood glucose was measured from samples taken from the tail vein before intraperitoneal injection of 1 g glucose per kg mouse weight, and at 10, 20, 30, 60, 90, 120, and 180 minutes after glucose administration using an A1phaTrak® glucometer (Abbott).

[1] = tested on: STZ-treated NOD/Scid-(IL-2Rγ-null) mice; assay: Multiple low-dose STZ model in immune-deficient NOD/Scid-(IL-2Rγ-null) mice; assay type: in vivo, mouse; settings: multiple low-dose STZ (data not shown for si-eIF5A)
Protocol: To test the role of eIF5A in cytokine-mediated islet dysfunction, efforts were made to identify a mouse model of islet inflammation. The multiple low dose streptozotocin (STZ) model, in which mice are subjected to five daily intraperitoneal doses (at 55 mg/kg body weight) of STZ, is considered to provoke local islet inflammation and cytokine release, in part through the recruitment of CD11c+ dendritic cells that release pro-inflammatory cytokines in the area of STZ-induced cellular destruction (27 and 28).
As noted, low-dose STZ-induced islet dysfunction involves at least two mechanisms: an inflammatory mechanism that is dependent upon cytokine release from immune cells and a direct toxic mechanism on the islet itself. […] Next, islets from 3 C57BL/6J mice per group 24 h after the initial STZ treatment were isolated and pooled and their iNOS content determined by immunoblot. […]
Studies in vivo: Daily STZ injections to groups of 10 week-old C57BL/6J and NOD/Scid-(IL-2Rγ-null) mice proceeded as described previously (30) at a dose of 55 mg STZ per kg mouse weight for 5 days. […] Serum was analyzed using a Luminex system (Millipore) and a mouse cytokine/chemokines Panel 1 mutliplex kit (Millipore).

[2] = IL-1β, TNFα, IFNγ for 4 h, compared to controls

5′-AACGGAAUGACUUCCAGCUGA-3′ (siSTABLE modification, further chemistry not given here) [si-eIF5A]
GSCa of isolated islets after cytokines (C57BL/6J mouse islets; [2]): significant preservation
GSIS of isolated islets after cytokines (C57BL/6J mouse islets; [2]): significant preservation
glucose-stimulated insulin secretion (GSIS) of isolated islets (C57BL/6J mouse islets; islets from siRNA-injected mice, no cytokines): significant improvement in islet response to glucose stimulation
glucose-stimulated Ca2+ mobilization (GSCa) of isolated islets (C57BL/6J mouse islets; islets from siRNA-injected mice, no cytokines, compared to controls): increased
protection against glucose intolerance [1]: did not protect against glucose intolerance
